This experiment concerns the target T1, Lp-PLA2 (Homo sapiens, UniProt Q13093).
T1 construct: from tissue; host or cells: LDL from plasma (apheresis)
T1 sequence (Q13093 22-441): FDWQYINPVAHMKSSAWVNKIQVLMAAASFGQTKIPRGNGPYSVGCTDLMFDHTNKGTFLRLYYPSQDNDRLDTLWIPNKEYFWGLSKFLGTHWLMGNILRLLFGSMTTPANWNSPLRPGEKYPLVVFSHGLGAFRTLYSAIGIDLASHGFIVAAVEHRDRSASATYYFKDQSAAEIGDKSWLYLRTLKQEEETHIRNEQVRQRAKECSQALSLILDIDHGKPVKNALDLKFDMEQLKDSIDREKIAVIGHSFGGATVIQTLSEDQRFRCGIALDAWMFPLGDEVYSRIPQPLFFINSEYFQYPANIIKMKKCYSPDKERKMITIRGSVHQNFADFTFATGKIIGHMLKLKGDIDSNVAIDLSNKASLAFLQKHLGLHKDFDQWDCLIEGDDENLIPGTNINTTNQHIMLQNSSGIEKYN
Kind of experiment: Screen for Lp-PLA2 inhibition (turnover of artificial substrate (A), absorbance at 405 nm). Type of experiment: biochemical. The note with it: 37° C., pH 7.4, 10 min pre-incubation, 20 μM substrate (A). The protocol: 1. Screen for Lp-PLA2 Inhibition.
Enzyme activity was determined by measuring the rate of turnover of the artificial substrate (A) at 37° C. in 50 mM HEPES (N-2-hydroxyethylpiperazine-N′-2-ethanesulphonic acid) buffer containing 150 mM NaCl, pH 7.4.
Assays were performed in 96 well titre plates.
Lp-PLA2 was pre-incubated at 37° C. with vehicle or test compound for 10 min in a total volume of 180 μl. The reaction was then initiated by the addition of 20 μl 10× substrate (A) to give a final substrate concentration of 20 μM. The reaction was followed at 405 nm for 20 minutes using a plate reader with automatic mixing. The rate of reaction was measured as the rate of change of absorbance.

pIC50: −log10 of the molar value.

`CCCCCCCCCCCCCCCCOCC(COP(=O)([O-])OCC[N+](C)(C)C)NC(C)=O` (centres unmarked) [Compound 1] showed a negative logarithm of the IC50 (pIC50) of 6.10.
For `CCCCCCCCCCCCCCCCCCOCC(COP(=O)([O-])OCC[N+](C)(C)C)NC(C)=O` (centres unmarked) [Compound 2] the value was 5.46; for `CCCCCCCCCCCCCCCCCCOCC(COP(=O)([O-])OCC[S+](C)C)NC(C)=O` (centres unmarked) [Compound 3], 6.00; for `CCCCCCCCCCCCCCCCCCOCC(COP(=O)([O-])OCC[n+]1ccn(C)c1)NC(C)=O` (centres unmarked) [Compound 8], 6.26.
Compound `CCCCCCCCCCCCCCCCCCOCC(COP(=O)([O-])OCC[N+](C)(C)C)NC(=O)C(F)(F)F` (centres unmarked) [Compound 9] showed a pIC50 of 5.60.

What is called pIC50 is −log10 of the IC50, conventionally taken in molar units.

(Values after US8088886B2, “Lipoprotein associated phospholipase A2, inhibitors thereof and use of the same in diagnosis and therapy” (Smith-Kline Beecham P.L.C., priority 1993, dated 2012).)
